Data taken from publication PMC11576109, “Synthesis and biological evaluation of diclofenac acid derivatives as potential lipoxygenase and α-glucosidase inhibitors” (Royal Society Open Science, 2024).
“Also recorded” adds a separate entry of the source.

Key:
α-glucosidase = α-glucosidase (Saccharomyces cerevisiae, UniProt P53341); assay: In vitro α-glucosidase inhibition assay; type: biochemical; details: NA = not active; for IC50: read-out: IC50 (µM) ± SEM α-glucosidase
Excerpt: (§1) Assay protocols for bioactivity were placed in electronic supplementary material.
Synthesized diclofenac acid derivatives were screened for α-glucosidase inhibitory activity (table 2).

soybean 15-LOX = biological target: T1, soybean 15-LOX (Glycine max, UniProt P08170); assay: In vitro 15-lipoxygenase inhibition assay; type: biochemical; details: read-out: IC50 (µM) ± SEM 15-LOX
T1 sequence (P08170 1-839): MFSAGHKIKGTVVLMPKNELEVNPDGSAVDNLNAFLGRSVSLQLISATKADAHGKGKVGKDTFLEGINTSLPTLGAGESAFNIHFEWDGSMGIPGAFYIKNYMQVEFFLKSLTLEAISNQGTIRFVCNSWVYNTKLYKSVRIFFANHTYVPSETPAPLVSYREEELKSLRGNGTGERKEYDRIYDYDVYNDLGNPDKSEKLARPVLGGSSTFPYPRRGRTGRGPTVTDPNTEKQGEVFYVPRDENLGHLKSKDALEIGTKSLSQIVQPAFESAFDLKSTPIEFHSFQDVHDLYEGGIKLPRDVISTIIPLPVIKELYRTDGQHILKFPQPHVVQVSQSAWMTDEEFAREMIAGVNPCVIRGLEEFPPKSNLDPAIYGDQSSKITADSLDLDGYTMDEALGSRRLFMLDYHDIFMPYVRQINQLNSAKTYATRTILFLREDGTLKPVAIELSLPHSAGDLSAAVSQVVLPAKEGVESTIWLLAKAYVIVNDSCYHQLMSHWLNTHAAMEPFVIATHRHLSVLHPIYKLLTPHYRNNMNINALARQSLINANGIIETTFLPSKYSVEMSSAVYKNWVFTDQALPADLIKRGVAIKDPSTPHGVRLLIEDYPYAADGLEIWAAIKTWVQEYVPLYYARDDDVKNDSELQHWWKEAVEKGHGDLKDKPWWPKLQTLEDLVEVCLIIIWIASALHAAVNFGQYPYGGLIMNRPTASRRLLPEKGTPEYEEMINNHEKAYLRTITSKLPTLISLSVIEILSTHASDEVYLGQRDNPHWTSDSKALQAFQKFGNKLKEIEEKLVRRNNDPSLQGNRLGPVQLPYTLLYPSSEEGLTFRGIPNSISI
Excerpt: as §1

mononuclear cells (MNCs) = assay: Cellular viability assay on mononuclear cells; type: cell-based, human
Excerpt: (§2) All of the chemicals and solvents were obtained from Sigma-Aldrich and used directly without any purification. Mononuclear cells were isolated from the blood samples taken from healthy volunteers. Diclofenac acid was purchased from Alfa Aesar. Bruker Avance 400 and 500 MHz spectrometers were used to […] the ^1H and ^13C nuclear magnetic resonance (NMR) spectra, were captured with tetramethylsilane (TMS) serving as an internal reference. On a Finnegan MAT-311A mass spectrometer, high-resolution mass spectrometry using electron ionization (HRMS (EI)) data were recorded. Using the Stuart melting point apparatus, melting points in open capillaries were determined (SMP10). All reactions were monitored by using thin layer chromatography (TLC) plates that were pre-coated with silica gel 60F254.
as §1
(§3) Using mononuclear cells (MNCs) at a concentration of 0.25 mM as shown in the table 2, the per cent viability was calculated.

[1] = Cellular viability assay on mononuclear cells; type: cell-based, human; details: human, mononuclear cells (MNCs) isolated from blood, read-out: cell viability (%) at 0.25 mM
Excerpt: as §2, §1, §3

Sequence of α-glucosidase (P53341 whole entry): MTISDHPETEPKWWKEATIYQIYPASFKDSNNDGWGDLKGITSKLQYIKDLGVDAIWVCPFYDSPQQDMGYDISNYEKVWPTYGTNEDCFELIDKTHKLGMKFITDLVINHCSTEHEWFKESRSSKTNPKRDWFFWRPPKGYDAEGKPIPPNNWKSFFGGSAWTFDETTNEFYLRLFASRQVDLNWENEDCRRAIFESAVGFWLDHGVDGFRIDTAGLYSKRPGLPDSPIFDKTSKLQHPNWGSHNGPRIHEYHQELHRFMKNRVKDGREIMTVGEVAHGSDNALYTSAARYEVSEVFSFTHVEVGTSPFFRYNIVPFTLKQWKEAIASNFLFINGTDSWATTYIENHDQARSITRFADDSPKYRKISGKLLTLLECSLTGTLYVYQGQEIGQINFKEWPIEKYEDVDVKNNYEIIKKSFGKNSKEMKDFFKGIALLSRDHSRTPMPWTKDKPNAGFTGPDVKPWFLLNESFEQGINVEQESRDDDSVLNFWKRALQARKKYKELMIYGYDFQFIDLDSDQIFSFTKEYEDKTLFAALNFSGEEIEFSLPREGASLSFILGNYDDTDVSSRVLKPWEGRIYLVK

In the case of O=C(Cc1ccccc1Nc1c(Cl)cccc1Cl)NNC(=S)Nc1ccccc1F [4a], the IC50 (α-glucosidase) is reported as 53 ± 1 µM, the IC50 (soybean 15-LOX) is reported as 163 ± 1 µM and the “cell viability (%) at 0.25 mM” value (mononuclear cells (MNCs)) is reported as 79 ± 2%.

With O=C(Cc1ccccc1Nc1c(Cl)cccc1Cl)NNC(=S)Nc1cccc(F)c1 [4b] the IC50 (α-glucosidase) was 5 ± 1 µM, the IC50 (soybean 15-LOX) was greater than 250 µM and the “cell viability (%) at 0.25 mM” value (mononuclear cells (MNCs)) was 82 ± 1%.

With O=C(Cc1ccccc1Nc1c(Cl)cccc1Cl)NNC(=S)Nc1ccc(F)cc1 [4c] the IC50 (α-glucosidase) was 53 ± 1 µM, the IC50 (soybean 15-LOX) was greater than 250 µM and the “cell viability (%) at 0.25 mM” value (mononuclear cells (MNCs)) was 62 ± 2%.

For O=C(Cc1ccccc1Nc1c(Cl)cccc1Cl)NNC(=S)Nc1cccc(Cl)c1Cl [4d], the IC50 (α-glucosidase) was 28 ± 1 µM, the IC50 (soybean 15-LOX) was 164 ± 1 µM and the “cell viability (%) at 0.25 mM” value (mononuclear cells (MNCs)) was 73 ± 1%.

With O=C(Cc1ccccc1Nc1c(Cl)cccc1Cl)NNC(=S)Nc1ccc(Cl)cc1Cl [4e] the IC50 (α-glucosidase) was 87 ± 1 µM, the IC50 (soybean 15-LOX) was 177 ± 1 µM and the “cell viability (%) at 0.25 mM” value (mononuclear cells (MNCs)) was 64 ± 2%.

For O=C(Cc1ccccc1Nc1c(Cl)cccc1Cl)NNC(=S)Nc1ccc(Cl)c(Cl)c1 [4f], the IC50 (α-glucosidase) was 93 ± 1 µM, the IC50 (soybean 15-LOX) was greater than 250 µM and the “cell viability (%) at 0.25 mM” value (mononuclear cells (MNCs)) was 64 ± 2%.

For Fc1ccccc1-n1c(S)nnc1Cc1ccccc1Nc1c(Cl)cccc1Cl [5a], the IC50 (α-glucosidase) was 202 ± 1 µM, the IC50 (soybean 15-LOX) was 14 ± 1 µM and the “cell viability (%) at 0.25 mM” value (mononuclear cells (MNCs)) was 97 ± 2%.

In the case of Fc1cccc(-n2c(S)nnc2Cc2ccccc2Nc2c(Cl)cccc2Cl)c1 [5b], the IC50 (α-glucosidase) is reported as 308 ± 1 µM, the IC50 (soybean 15-LOX) is reported as 61 ± 1 µM and the “cell viability (%) at 0.25 mM” value (mononuclear cells (MNCs)) is reported as 96 ± 2%.

With Fc1ccc(-n2c(S)nnc2Cc2ccccc2Nc2c(Cl)cccc2Cl)cc1 [5c] the IC50 (α-glucosidase) was 170 ± 1 µM, the IC50 (soybean 15-LOX) was greater than 250 µM and the “cell viability (%) at 0.25 mM” value (mononuclear cells (MNCs)) was 96 ± 2%.

With Sc1nnc(Cc2ccccc2Nc2c(Cl)cccc2Cl)n1-c1cccc(Cl)c1Cl [5d] the IC50 (α-glucosidase) was 83 ± 1 µM, the IC50 (soybean 15-LOX) was 141 ± 1 µM and the “cell viability (%) at 0.25 mM” value (mononuclear cells (MNCs)) was 96 ± 2%.

In the case of Sc1nnc(Cc2ccccc2Nc2c(Cl)cccc2Cl)n1-c1ccc(Cl)cc1Cl [5e], the IC50 (α-glucosidase) is reported as 92 ± 1 µM, the IC50 (soybean 15-LOX) is reported as 93 ± 1 µM and the “cell viability (%) at 0.25 mM” value (mononuclear cells (MNCs)) is reported as 94 ± 1%.

For Sc1nnc(Cc2ccccc2Nc2c(Cl)cccc2Cl)n1-c1ccc(Cl)c(Cl)c1 [5f], the IC50 (α-glucosidase) was 247 ± 1 µM, the IC50 (soybean 15-LOX) was 75 ± 1 µM and the “cell viability (%) at 0.25 mM” value (mononuclear cells (MNCs)) was 97 ± 2%.

For CCSc1nnc(Cc2ccccc2Nc2c(Cl)cccc2Cl)n1-c1ccc(F)cc1 [6a], the IC50 (α-glucosidase) was 116 ± 1 µM, the IC50 (soybean 15-LOX) was greater than 250 µM and the “cell viability (%) at 0.25 mM” value (mononuclear cells (MNCs)) was 88 ± 2%.

In the case of CCSc1nnc(Cc2ccccc2Nc2c(Cl)cccc2Cl)n1-c1ccc(Cl)c(Cl)c1 [6b], the IC50 (α-glucosidase) is reported as 132 ± 1 µM, the IC50 (soybean 15-LOX) is reported as greater than 250 µM and the “cell viability (%) at 0.25 mM” value (mononuclear cells (MNCs)) is reported as 98 ± 1%.

For CCCSc1nnc(Cc2ccccc2Nc2c(Cl)cccc2Cl)n1-c1ccc(F)cc1 [6c], the IC50 (α-glucosidase) was 92 ± 1 µM, the IC50 (soybean 15-LOX) was greater than 250 µM and the “cell viability (%) at 0.25 mM” value (mononuclear cells (MNCs)) was 85 ± 1%.

For CCCSc1nnc(Cc2ccccc2Nc2c(Cl)cccc2Cl)n1-c1ccc(Cl)c(Cl)c1 [6d], the IC50 (α-glucosidase) was 90 ± 1 µM, the IC50 (soybean 15-LOX) was greater than 250 µM and the “cell viability (%) at 0.25 mM” value (mononuclear cells (MNCs)) was 78 ± 2%.

In the case of Fc1ccccc1Nc1nnc(Cc2ccccc2Nc2c(Cl)cccc2Cl)o1 [7a], the IC50 (α-glucosidase) is reported as 7 ± 1 µM, the IC50 (soybean 15-LOX) is reported as 98 ± 1 µM and the “cell viability (%) at 0.25 mM” value (mononuclear cells (MNCs)) is reported as 76 ± 1%.

With Fc1cccc(Nc2nnc(Cc3ccccc3Nc3c(Cl)cccc3Cl)o2)c1 [7b] the IC50 (α-glucosidase) was 3 ± 1 µM, the IC50 (soybean 15-LOX) was 87 ± 1 µM and the “cell viability (%) at 0.25 mM” value (mononuclear cells (MNCs)) was 72 ± 1%.

In the case of Fc1ccc(Nc2nnc(Cc3ccccc3Nc3c(Cl)cccc3Cl)o2)cc1 [7c], the IC50 (α-glucosidase) is reported as 85 ± 1 µM, the IC50 (soybean 15-LOX) is reported as 67 ± 1 µM and the “cell viability (%) at 0.25 mM” value (mononuclear cells (MNCs)) is reported as 63 ± 1%.

For Clc1cccc(Nc2nnc(Cc3ccccc3Nc3c(Cl)cccc3Cl)o2)c1Cl [7d], the IC50 (α-glucosidase) was 79 ± 1 µM, the IC50 (soybean 15-LOX) was 165 ± 1 µM and the “cell viability (%) at 0.25 mM” value (mononuclear cells (MNCs)) was 62 ± 2%.

With Clc1ccc(Nc2nnc(Cc3ccccc3Nc3c(Cl)cccc3Cl)o2)c(Cl)c1 [7e] the IC50 (α-glucosidase) was 61 ± 1 µM, the IC50 (soybean 15-LOX) was 172 ± 1 µM and the “cell viability (%) at 0.25 mM” value (mononuclear cells (MNCs)) was 43 ± 1%.

With Clc1ccc(Nc2nnc(Cc3ccccc3Nc3c(Cl)cccc3Cl)o2)cc1Cl [7f] the IC50 (α-glucosidase) was 91 ± 1 µM, the IC50 (soybean 15-LOX) was 143 ± 1 µM and the “cell viability (%) at 0.25 mM” value (mononuclear cells (MNCs)) was 59 ± 2%.

In the case of Fc1ccccc1Nc1nnc(Cc2ccccc2Nc2c(Cl)cccc2Cl)s1 [8a], the IC50 (α-glucosidase) is reported as 99 ± 1 µM, the IC50 (soybean 15-LOX) is reported as greater than 250 µM and the “cell viability (%) at 0.25 mM” value (mononuclear cells (MNCs)) is reported as 86 ± 2%.

With Fc1cccc(Nc2nnc(Cc3ccccc3Nc3c(Cl)cccc3Cl)s2)c1 [8b] the IC50 (α-glucosidase) was 11 ± 1 µM, the IC50 (soybean 15-LOX) was 97 ± 1 µM and the “cell viability (%) at 0.25 mM” value (mononuclear cells (MNCs)) was 92 ± 2%.

For Fc1ccc(Nc2nnc(Cc3ccccc3Nc3c(Cl)cccc3Cl)s2)cc1 [8c], the IC50 (α-glucosidase) was 55 ± 1 µM, the IC50 (soybean 15-LOX) was 173 ± 1 µM and the “cell viability (%) at 0.25 mM” value (mononuclear cells (MNCs)) was 76 ± 1%.

For Clc1cccc(Nc2nnc(Cc3ccccc3Nc3c(Cl)cccc3Cl)s2)c1Cl [8d], the IC50 (α-glucosidase) was 46 ± 1 µM, the IC50 (soybean 15-LOX) was 132 ± 1 µM and the “cell viability (%) at 0.25 mM” value (mononuclear cells (MNCs)) was 98 ± 2%.

For Clc1ccc(Nc2nnc(Cc3ccccc3Nc3c(Cl)cccc3Cl)s2)c(Cl)c1 [8e], the “IC50 (µM) ± SEM α-glucosidase” value (α-glucosidase) was “inactive; also recorded: non-active”, the IC50 (soybean 15-LOX) was greater than 250 µM and the “cell viability (%) at 0.25 mM” value (mononuclear cells (MNCs)) was 75 ± 1%.

With Clc1ccc(Nc2nnc(Cc3ccccc3Nc3c(Cl)cccc3Cl)s2)cc1Cl [8f] the IC50 (α-glucosidase) was 125 ± 1 µM, the IC50 (soybean 15-LOX) was 156 ± 1 µM and the “cell viability (%) at 0.25 mM” value (mononuclear cells (MNCs)) was 95 ± 2%.

Work on O=c1cc(-c2ccccc2)oc2cc(O)c(O)c(O)c12 [baicalein, reference compound] yielded an IC50 (soybean 15-LOX) of 22 ± 1 µM.

COc1cc(/C=C/C(=O)CC(=O)/C=C/c2ccc(O)c(OC)c2)ccc1O [curcumin, reference compound] gave a viability at 0.25 mM [1] of 74 ± 2%.

Compound O=P1(N(CCCl)CCCl)NCCCO1 (stereo not shown) [cyclophosphamide, reference compound] has a viability at 0.25 mM [1] of 56 ± 2%.

O=c1c(O)c(-c2ccc(O)c(O)c2)oc2cc(O)cc(O)c12 [quercetin, reference compound] showed a viability at 0.25 mM [1] of 92 ± 1%.
